Results on twelve compounds are retold here after PMC8703884, “Synthesis and Biological Evaluation of S-, O- and Se-Containing Dispirooxindoles” (Molecules, 2021).

Entries after “also recorded” stand apart in the source; their conditions may differ. Read-outs that look alike come from different tables or passages of the source.

In data set [1] the test system is HCT116^−/− human colon cancer cells (p53 negative). Nature of the data set: MTT cytotoxicity test, HCT116 p53-/-. Particulars: HCT-116, read-out: CC50, HCT^−/−. The text has this: (§1) The used models included human prostate cancer cell lines LNCaP and PC3, breast cancer cell line (MCF-7), human colon cancer cells (HCT116^+/+, p53 positive, p53^+/+ and HCT116^−/−, p53 negative, p53^−/−), human lung adenocarcinoma epithelial cell line (A549), SV40-transformed normal human lung fibroblast cells (VA13), as well as human embryonic kidney 293 cells (Hek293) stably expressing SV40 large T antigen (Hek293T). The cytotoxicity of the evaluated molecules was properly assessed using a MTT assay based on the modified approach reported by Ferrari and colleagues.
(§2) To further elucidate the dominant mode of action, we used HCT116^+/+ and HCT116^−/− cells by analogy with the paper published by Shangary and colleagues. This isogenic cell line is commonly applied to investigate the p53/MDM2-dependent mode of action.
(§3) MTT test. The MTT assay was carried out according to [35] with few modifications; 3000 Cells (for HEK293T, A549 and MCF7cell lines) or 4000 cells (for VA13 cell line) were seeded in each well of a 96-well plate. […] Assays were performed in triplicates. […] The MTT solution was then discarded and 140 µL of DMSO was added. The plates were swayed on a shaker (60 rpm) to solubilize the formazan. […] The analysis of cytotoxicity and the estimation of IC50 values were carried out with the built-in functions in the GraphPad Prism program (GraphPad Software, Inc., San Diego, CA) P53 activation.
(Tetrazolium assays rely on reduction of a dye to a coloured formazan, in cell work by metabolically active cells.)

The test system of data set [2] is MCF7 breast cancer cell line. In words: MTT cytotoxicity test, MCF7. It counts as cell-based. Particulars: Homo sapiens, 72 h incubation. On the procedure:
(§4) MTT test. […] Assays were performed in triplicates.

For data set [3], the system named is LNCaP human prostate cancer cell line. In words: MTT cytotoxicity test, LNCaP. Particulars: for CC50: Homo sapiens, LNCaP, read-out: CC50, LNCaP. The class given is cell-based.
The test system of data set [4] is PC3 human prostate cancer cell line. In words: MTT cytotoxicity test, PC3. The class given is cell-based. Particulars: Homo sapiens.
Data set [5] has as its system A549 human lung adenocarcinoma epithelial cell line. Nature of the data set: MTT cytotoxicity test, A549. The class given is cell-based. Particulars: 72 h incubation.
Data set [6] is described as follows: MTT cytotoxicity test, Hek293T. It counts as cell-based. Particulars: human, 72 h incubation.
The test system of data set [7] is HCT116^+/+ human colon cancer cells (p53 positive). In words: MTT cytotoxicity test, HCT116 p53+/+. Particulars: for CC50: Homo sapiens, HCT-116, read-out: CC50, HCT^+/+.
Excerpt: as §1, §2, §3

Data set [8] is described as follows: MTT cytotoxicity test, VA13. It counts as cell-based. Particulars: human, VA13 SV40-transformed normal lung fibroblast cells, 72 h incubation. On the procedure: as §4
The mark [9] stands for this setting: ratio of CC50 values of the cell line pair.

Consider `COc1ccc(N2C(=O)[C@@]3(CN(C)C[C@@]34C(=O)Nc3ccc(Cl)cc34)NC2=S)cc1` (racemic) [Compound 4f, 5″-Cchloro-1′-methyl-1-(4-methoxyphenyl)-2-thioxodispiro[imidazolidine-4,3′-pyrrolidine-4′,3″-indoline]-2″,5-dione], for which the CC50 was 2.35 ± 0.95 µM in data set [1]; 2.3 ± 0.5 µM in data set [2]; 4.5 ± 0.32 µM in data set [3] (MTT test); 12.6 ± 2.3 µM in data set [4]; 2.8 ± 0.4 µM in data set [5]; 1.95 ± 0.43 µM in [7]. Further, the “selectivity on LNCaP cells over PC3 cells” value (shortened to “selectivity on LNCaP cells”) in [3] (MTT test) is “selective; also recorded: moderate selectivity”. Further, in data set [3] (setting [9]), the “selectivity index S for LNCaP/PC3 cells” value is recorded as 2.8. The CC50 at 72 h stood at 1.1 ± 0.1 µM in data set [6] and 2.3 ± 0.4 µM in data set [8].
Broadly, the melting point is the temperature of the solid-liquid transition. `CN1CC2(NC(=S)N(Cc3ccccc3)C2=O)C2(C1)C(=O)Nc1ccccc12` (stereo not shown) [Compound 4a, 1′-Methyl-1-benzyl-2-thioxodispiro[imidazolidine-4,3′-pyrrolidine-4′,3″-indoline]-2″,5-dione] gave a melting point of 189 to 190 °C. Further, the CC50 in [1] turned out to be 40.1 ± 19.1 µM. Also, in data set [2], the CC50 stood at 31.3 ± 6.7 µM. Also, in [3] (MTT test), the CC50 was determined as 12.5 ± 2.1 µM and the “selectivity on LNCaP cells” value is listed as “moderate selectivity”. In addition, in [4], the CC50 was 30.1 ± 9.1 µM. Moreover, the CC50 in [5] was 20.3 ± 3.7 µM. Moreover, the CC50 at 72 h in [6] came out at 9.8 ± 1.6 µM. In data set [7], the CC50 came out at 66.2 ± 11.7 µM. The CC50 at 72 h in data set [8] worked out at 16.1 ± 2.5 µM.
For the compound `CN1CC2(NC(=S)N(Cc3ccccc3)C2=O)C2(C1)C(=O)Nc1ccc(Cl)cc12` (stereo not shown) [Compound 4b, 5″-Chloro-1′-methyl-1-benzyl-2-thioxodispiro[imidazolidine-4,3′-pyrrolidine-4′,3″-indoline]-2″,5-dione], the melting point lay in the range of 152 to 153 °C. Further, the CC50 in data set [1] came to 30 ± 15.2 µM. Also, the CC50 in data set [2] worked out at 24.3 ± 2.3 µM. Further, in [3] (MTT test), the CC50 came out at 10.3 ± 1.1 µM and the “selectivity on LNCaP cells” value is recorded as “moderate selectivity”. The compound further gave a CC50 in data set [4] of 49 ± 12.7 µM. The same compound showed a CC50 in data set [5] of 9.1 ± 2.2 µM. The CC50 at 72 h in data set [6] came to 9.5 ± 1.7 µM. Also, the CC50 in data set [7] amounted to 60.7 ± 13.8 µM. The CC50 at 72 h in data set [8] is 21.4 ± 1.9 µM.
For the compound `C=CCN1C(=O)C2(CN(C)CC23C(=O)Nc2ccccc23)NC1=S` (stereo not shown) [Compound 4c, 1′-Methyl-1-allyl-2-thioxodispiro[imidazolidine-4,3′-pyrrolidine-4′,3″-indoline]-2″,5-dione], the melting point is 281 to 283 °C (dec.). Moreover, the CC50 in data set [1] turned out to be 14.3 ± 6.65 µM. This compound also showed a CC50 in data set [2] greater than 100 µM. For the same compound, the CC50 in [3] (MTT test) came out at 9.8 ± 3.3 µM. Moreover, the CC50 in data set [4] was determined as 53.1 ± 15.8 µM. Further, in data set [5], the CC50 is 45.9 ± 13.4 µM. For the same compound, the CC50 at 72 h in data set [6] turned out to be 41.8 ± 12.4 µM. Moreover, in data set [7], the CC50 is greater than 100 µM. In data set [8], this compound registered a CC50 at 72 h greater than 100 µM.
For `C=CCN1C(=O)C2(CN(C)CC23C(=O)Nc2ccc(Cl)cc23)NC1=S` (stereo not shown) [Compound 4d, 5″-Chloro-1′-methyl-1-allyl-2-thioxodispiro[imidazolidine-4,3′-pyrrolidine-4′,3″-indoline]-2″,5-dione], the melting point was 141 to 142 °C. Moreover, in [1], the CC50 was determined as 40.1 ± 5.23 µM. In data set [2], this compound yielded a CC50 of 68.4 ± 8.8 µM. In [3] (MTT test), the CC50 was determined as 20 ± 3.6 µM and the “selectivity on LNCaP cells” value was “moderate selectivity”. For the same compound, in data set [4], the CC50 was 50 ± 9.1 µM. The compound also yielded a CC50 in data set [5] of 32.1 ± 6.7 µM. Besides, in data set [6], the CC50 at 72 h amounted to 11.5 ± 3 µM. For the same compound, the CC50 in data set [7] was 57.7 ± 18.4 µM. Also, in data set [8], the CC50 at 72 h turned out to be 30.8 ± 4.5 µM.
Compound `CN1CC2(NC(=S)N(c3ccc(F)cc3)C2=O)C2(C1)C(=O)Nc1ccc(Cl)cc12` (stereo not shown) [Compound 4n, 5″-Chloro-1′-methyl-1-(4-fluorophenyl)-2-thioxodispiro[imidazolidine-4,3′-pyrrolidine-4′,3″-indoline]-2″,5-dione] came in with a melting point of 273 to 274 °C. Also, the CC50 in [1] was greater than 100 µM. Moreover, in data set [3] (MTT test), the CC50 is greater than 100 µM. The same compound came in with a CC50 in data set [4] greater than 100 µM. Besides, the CC50 in data set [5] was greater than 100 µM. In data set [6], this compound displayed a CC50 at 72 h of 53 ± 9.5 µM. In addition, the CC50 in data set [7] was greater than 100 µM.
`CN1CC2(NC(=S)N(CCCN3CCOCC3)C2=O)C2(C1)C(=O)Nc1ccc(Cl)cc12` (stereo not shown) [Compound 4v, 5″-Chloro-1′-methyl-1-(3-morpholinopropyl)-2-thioxodispiro[imidazolidine-4,3′-pyrrolidine-4′,3″-indoline]-2″,5-dione] yielded a melting point of 224 to 225 °C. Also, the CC50 in data set [1] was greater than 100 µM. For the same compound, in data set [3] (MTT test), the CC50 is greater than 100 µM. Further, the CC50 in data set [4] was greater than 100 µM. Moreover, the CC50 in data set [5] is greater than 100 µM. This compound also had a CC50 at 72 h in data set [6] of 103 ± 27.7 µM. The CC50 in [7] is greater than 100 µM.
Compound `CN1CC2(NC(=S)N(c3ccccc3)C2=O)C2(C1)C(=O)Nc1ccc(Cl)cc12` (stereo not shown) [Compound 4x, 5″-Chloro-1′-methyl-1-phenyl-2-thioxodispiro[imidazolidine-4,3′-pyrrolidine-4′,3″-indoline]-2″,5-dione] returned a melting point of 268 to 269 °C. Also, the CC50 in data set [1] is greater than 100 µM. Further, the CC50 in data set [3] (MTT test) was greater than 100 µM. The same compound gave a CC50 in data set [4] greater than 100 µM. Further, the CC50 in [5] was greater than 100 µM. Besides, the CC50 at 72 h in [6] was greater than 100 µM. The CC50 in [7] is greater than 100 µM.
As for `COc1ccc(N2C(=O)C3(CN(C)CC34C(=O)Nc3ccc(Cl)cc34)NC2=[Se])cc1` (stereo not shown) [Compound 6f, 5″-Chloro-1-(4-methoxyphenyl)-1′-methyl-2-selenoxodispiro[imidazolidine-4,3′-pyrrolidine-4′,3″-indoline]-2″,5-dione], the melting point is 284 to 285 °C (dec.). This compound also gave a CC50 in data set [2] of 20.4 ± 3.6 µM. Further, the CC50 in data set [5] came to 15.8 ± 1.5 µM. Further, in data set [6], the CC50 at 72 h was 14 ± 1.5 µM. Further, the CC50 at 72 h in data set [8] was found to be 12.5 ± 1.5 µM.
With `CN1CC2(NC(=[Se])N(c3ccc(F)c(Cl)c3)C2=O)C2(C1)C(=O)Nc1ccc(Cl)cc12` (stereo not shown) [Compound 6r, 5″-Chloro-1-(3-chloro-4-fluorophenyl)-1′-methyl-2-selenoxodispiro[imidazolidine-4,3′-pyrrolidine-4′,3″-indoline]-2″,5-dione], the melting point was 193 to 194 °C (dec.). For the same compound, in [3], the CC50 came to 11.8 ± 1.5 µM. Also, the “CC50, LNCaP” value in [3] (MTT test) is listed as “good activity”. In data set [4], this compound showed a CC50 greater than 50 µM. In addition, the CC50 in data set [5] was 26.5 ± 5.4 µM. The CC50 at 72 h in data set [6] was 11.9 ± 0.9 µM.
`CCOc1ccc(N2C(=O)NC3(CN(C)CC34C(=O)Nc3ccc(Cl)cc34)C2=O)cc1` (stereo not shown) [Compound 9h, 5″-Chloro-1-(4-ethoxyphenyl)-1′-methyldispiro[imidazolidine-4,3′-pyrrolidine-4′,3″-indoline]-2,2″,5-trione]: the melting point was in the range of 273 to 274 °C.
In the case of `COc1cc([C@@H]2c3cc4c(cc3[C@@H](O[C@@H]3O[C@@H]5CO[C@@H](C)O[C@H]5[C@H](O)[C@H]3O)[C@H]3COC(=O)[C@H]23)OCO4)cc(OC)c1O` [Etoposide, reference compound], the CC50 in [1] worked out at 0.85 ± 0.22 µM; in data set [2] it was 2.6 ± 0.9 µM; in data set [5], 0.3 ± 0.1 µM; in data set [7], 0.43 ± 0.12 µM. The CC50 at 72 h in [6] stood at 0.3 ± 0.1 µM. Besides, the “selectivity S against HCT116^+/+ over HCT116^−/−” value in data set [7] (setting [9]) is 1.97.
